Converted amounts (≈) assume the structure as drawn.
Conditions: buffer; pH 7.4; 200.0 µM

SMILES | solubility kinetic
O=C(OCC(=O)N1CCCC1=O)C1COc2ccccc2O1 (stereo not drawn) | > 45.8 µg/mL
COc1ccc(/C=C/C(=O)NCCc2nc3ccccc3[nH]2)cc1 | 9.9 µg/mL (≈ 30.8 µM)
N#Cc1c(SCC(N)=O)nc2c(c1-c1ccncc1)CCCC2 | > 48.7 µg/mL
CCOc1ccccc1NCc1cc(=O)oc2cc(C)ccc12 | 6.2 µg/mL (≈ 20 µM)
COCCOC(=O)C1=C(C)NC(=O)NC1c1ccco1 (stereo not drawn) | > 42 µg/mL
COC(=O)CCN(C(=O)c1cccc([N+](=O)[O-])c1)c1ccccn1 | > 49.4 µg/mL
Oc1ccc(/C=N/NC(=S)N2CCOCC2)cc1 | > 39.8 µg/mL
O=C(CSc1ccc([N+](=O)[O-])cn1)Nc1nccs1 | 1.9 µg/mL (≈ 6.41 µM)
COc1ccc([N+](=O)[O-])cc1N1C(=O)c2cccnc2C1=O | > 44.9 µg/mL
COc1ccc2c(c1)C(=O)N(Cc1ccccc1)C(=O)C2(C)C | 10.5 µg/mL (≈ 33.9 µM)
COc1ccc(NC(=O)CC(C(=O)O)C(C)c2ccccc2)cc1 (stereo not drawn) | > 49.1 µg/mL
CC(Oc1ccc(C#N)cc1)C(=O)N1CC=C(c2ccccc2)CC1 (stereo not drawn) | 38.4 µg/mL (≈ 116 µM)
CN(Cc1cccs1)C(=O)COC(=O)CNC(N)=O | > 42.8 µg/mL
Nc1nnc(SCC(=O)NC2CCCC2)s1 | > 38.8 µg/mL
CCOc1ccc(CC(=O)Nc2cc(=O)n(C)c(=O)n2C)cc1 | 4.8 µg/mL (≈ 15.1 µM)
C(=N\N1CCOCC1)/c1ccsc1.O=P(O)(O)O | > 44.1 µg/mL
Nc1ccccc1Nc1nc2ccccc2[nH]1 | > 33.6 µg/mL
S=C(NCCc1ccccn1)NC1CC2CCC1C2 (stereo not drawn) | > 41.3 µg/mL
CC(C)(C)c1ccc(C(=O)NCC(=O)NCc2ccccn2)cc1 | 42.9 µg/mL (≈ 132 µM)
CCOc1ccccc1NC(=O)c1ccc(CN2CCc3ccccc3C2)cc1 | 2.3 µg/mL (≈ 5.95 µM)
COc1cccc(-n2cc(-c3ccc(F)cc3)[nH]c2=S)c1 | 2.4 µg/mL (≈ 7.99 µM)
CC(C)(C)c1ccc(CCC2OCC(CN3CCOCC3)O2)cc1 (stereo not drawn) | 40 µg/mL (≈ 120 µM)
CC1CCCN(S(=O)(=O)c2ccc(Cl)s2)C1 (stereo not drawn) | 10.8 µg/mL (≈ 38.6 µM)
CN(C(=O)C(C)(C)C)C1c2c(ccc3ccccc23)OCC1CO (stereo not drawn) | 6.6 µg/mL (≈ 20.2 µM)
O=C(NCCc1ccccc1)C1CC1 | > 28.4 µg/mL

SMILES | solubility kinetic
O=[N+]([O-])c1ccccc1S(=O)(=O)Nc1cccnc1 | > 41.9 µg/mL
COc1cccc(-c2onc3ccc(C(=O)/C=C/N(C)C)cc23)c1 | 14.6 µg/mL (≈ 45.3 µM)
O=C(NCCCc1ccccc1)c1ccc(F)cc1 | > 38.6 µg/mL
COC(=O)C(Cc1ccccc1)NC(=O)CC(C)CC(=O)Nc1ccc(C)cc1 (stereo not drawn) | 14.3 µg/mL (≈ 36.1 µM)
CCOCCCNCC(=O)Nc1cc(S(=O)(=O)N2CCOCC2)ccc1N1CCOCC1 | > 70.6 µg/mL
Fc1cccc(F)c1-c1nc(-c2ccncc2)no1 | 14.7 µg/mL (≈ 56.7 µM)
Cc1cccnc1NC(=O)c1ccc2c(c1)NC(=O)C(C)S2 (stereo not drawn) | > 47 µg/mL
Cc1ccccc1NC(=O)c1cccc(NC(=O)c2ccco2)c1 | > 48.1 µg/mL
Cc1c[nH]c2ccccc12 | 6.8 µg/mL (≈ 51.8 µM)
CC(NC(=O)c1cc(Br)cs1)C1CCCO1 (stereo not drawn) | > 45.6 µg/mL
CCOC(=O)c1cc(-c2csc(-c3cccc(Cl)c3)n2)on1 | < 0.4 µg/mL
CNC(=S)NC(CC(=O)OC)c1ccc2c(c1)OCO2 (stereo not drawn) | 41.8 µg/mL (≈ 141 µM)
Cc1cccc(C)c1NC(=S)N(Cc1cccs1)C1CCCC1 | 0.6 µg/mL (≈ 1.74 µM)
CC(=O)O/N=C/c1c(NCc2ccccc2)nc2c(C)cccn2c1=O | 25.7 µg/mL (≈ 73.3 µM)
Cc1nc2cc(NS(=O)(=O)c3ccccc3)ccc2n1C | 15.6 µg/mL (≈ 51.8 µM)
CCOC(=O)c1cc(NC(=O)/C=C\C(=O)O)ccc1Cl | > 44.7 µg/mL
O=C(O)C1CC(=O)N(c2ccc(OCc3ccc(Br)cc3)cc2)C1 (stereo not drawn) | > 58.5 µg/mL
CC(C)NC(=O)NNc1c(Cl)cncc1Cl | > 39.5 µg/mL
NC(=O)N1CCc2ccccc21 | > 24.3 µg/mL
Cc1noc(-c2ccccc2)c1NC(=O)Nc1ccccc1 | > 44 µg/mL
N/C(CN1CCSCC1)=N\OCc1c(F)cccc1Cl | 40.4 µg/mL (≈ 127 µM)
Cc1ccc([N+](=O)[O-])cc1S(=O)(=O)Nc1cccc(S(=O)(=O)Nc2ccccc2C(=O)O)c1 | > 73.7 µg/mL
O=C(Cc1ccccc1[N+](=O)[O-])Nc1ccccc1C(=O)N1CCOCC1 | > 55.4 µg/mL
O=C(COC(=O)C12CC3CC(CC(C3)C1)C2)Nc1nccs1 | < 0.3 µg/mL
O=C(CN1N=C(c2ccccc2)CCC1=O)NCc1ccccc1 | > 48.2 µg/mL

SMILES | solubility kinetic
CC(C(Sc1ccccc1N)c1ccccc1)[N+](=O)[O-] (stereo not drawn) | 15.1 µg/mL (≈ 52.4 µM)
Nc1ccc(Sc2ccccc2Cl)nc1 | > 35.5 µg/mL
CC(=O)c1c(C)n(CC(=O)NCc2ccco2)c2ccccc12 | 18.5 µg/mL (≈ 59.6 µM)
CC(=O)NCCN1C(=O)S/C(=C\c2cccs2)C1=O | > 44.5 µg/mL
O=C(NCCCCc1ccccc1)c1ccccc1F | > 40.7 µg/mL
Cl.Clc1ccc(CNCCCSc2ncccn2)cc1 | > 49.5 µg/mL
COc1cccc(CNC(=O)c2ccncc2)c1 | 36.3 µg/mL (≈ 150 µM)
NC(=O)C1CC12c1ccccc1-c1ccccc12 (stereo not drawn) | 22 µg/mL (≈ 93.5 µM)
CC1CC1C(=O)Nc1nc2ccc(Cl)cc2s1 (stereo not drawn) | 0.6 µg/mL (≈ 2.25 µM)
CC1CC(O)C(C)CN1 (stereo not drawn) | > 19.4 µg/mL
Cl.c1ccc(CCNCc2cccnc2)cc1 | 35.3 µg/mL
C/C(=N\NC(N)=O)c1c(O)n(C)c(=O)n(C)c1=O | > 38.3 µg/mL
Cl.N[C@@H](CCl)C(=O)O | > 24 µg/mL
CCCNS(=O)(=O)c1cc2c3c(c1)CCN3C(=O)CC2 | > 44.2 µg/mL
CCCN1C(=O)C(O)(C2COC(C)(C)CC2=O)c2ccccc21 (stereo not drawn) | 33.7 µg/mL (≈ 106 µM)
CCOc1ccc(C(CC(=O)O)NC(=O)C(CC)c2ccccc2)cc1 (stereo not drawn) | 47.9 µg/mL (≈ 135 µM)
CN(C)CCCNc1nc(N)c([N+](=O)[O-])c(NCc2ccccc2)n1 | 44.3 µg/mL (≈ 128 µM)
CCCc1cnc(N2CCN(S(=O)(=O)c3cccs3)CC2)nc1 | < 0.2 µg/mL
Cc1nc2ccccn2c1C(=O)C(=O)Nc1cc(F)ccc1F | 4 µg/mL (≈ 12.7 µM)
CC(C)c1ccc(C(=O)NCCCNC(=O)c2cnccn2)cc1 | > 49 µg/mL
COc1cccc(C2NC(=O)NC(C)=C2C(=O)OCC2CCCO2)c1 (stereo not drawn) | 44.9 µg/mL (≈ 130 µM)
Clc1ccc2c(c1)Nc1ccccc1CC2 | < 0.5 µg/mL
O=C(O)c1cc(-c2ccco2)nc2cc3ccccc3cc12 | > 43.4 µg/mL
O=C(NCCc1ccccc1)Oc1ccc(Cl)cc1 | 2.3 µg/mL (≈ 8.34 µM)
CCOC(=O)/C=C/C(=O)OCC(=O)Nc1ccc(Cl)cc1Cl | 8.8 µg/mL (≈ 25.4 µM)

SMILES | solubility kinetic
Nc1nc(SCC(=O)Nc2cccc([N+](=O)[O-])c2)n[nH]1 | > 44.1 µg/mL
CCCN1CCN(C(=O)c2ccc3nc(CC)c(CC)nc3c2)CC1 | > 51.1 µg/mL
C=CCn1c(SCCCC)nc([O-])cc1=O.[NH4+] | 22.4 µg/mL
O=C(c1cc([N+](=O)[O-])cc([N+](=O)[O-])c1)N1CCN(C(=O)c2ccco2)CC1 | 54 µg/mL (≈ 144 µM)
CC1CCCC(NC(=O)c2ccc3c(c2)OCCO3)C1C (stereo not drawn) | > 43.4 µg/mL
CCCCCC(=O)Nc1ncc2c(n1)CC(c1cccs1)CC2=O (stereo not drawn) | 4.4 µg/mL (≈ 12.8 µM)
COc1ccc(C2NC(=O)NC(C)=C2[N+](=O)[O-])cc1OC (stereo not drawn) | > 44 µg/mL
O=c1[nH]c2ccccc2nc1C(Nc1ccccc1)c1ccccc1 (stereo not drawn) | < 0.2 µg/mL
CCOc1nc(-c2ccccc2)c2cc(Br)ccc2n1 | < 0.4 µg/mL
Clc1cccc(C2NCc3ccccc3-n3cccc32)c1 (stereo not drawn) | 3.5 µg/mL (≈ 11.9 µM)
COc1ccc(CNC(=S)Nc2ccccc2)cc1Cl | 31.7 µg/mL (≈ 103 µM)
COc1cccc(OC)c1C(=O)Nc1sc2c(c1C#N)CCC2 | 0.7 µg/mL (≈ 2.13 µM)
COc1ccc(OCCC(=O)OCC(=O)NCCc2ccccc2)cc1 | 52.8 µg/mL (≈ 148 µM)
O/N=C(/c1ccc(F)cc1)C1CC1c1c(F)cccc1Cl (stereo not drawn) | 5 µg/mL (≈ 16.2 µM)
CN1CCN(S(=O)(=O)c2cccc3nsnc23)CC1 | > 44.8 µg/mL
Cc1ccc(NC(=O)CCCc2c[nH]c3ccccc23)nc1 | 3.8 µg/mL (≈ 13 µM)
CSc1ccc(S(=O)(=O)N2c3ccccc3CC2C)cc1 (stereo not drawn) | 1.7 µg/mL (≈ 5.32 µM)
CCn1nc(C)c(/C=N/NC(=O)Cn2cncn2)c1C | > 41.3 µg/mL
O=C(Nc1ccon1)Nc1ccccc1C(F)(F)F | > 40.7 µg/mL
O=[N+]([O-])C1=CC=C2C(=NC3(CCCCC3)N2O)C1=NCCO | > 45.9 µg/mL
COc1cc(C(C)=O)ccc1Oc1ncccn1 | > 36.6 µg/mL
CCCN1C(=O)C2(SC(NC(C)=O)=NN2C(C)=O)c2cc(C)cc(C)c21 (stereo not drawn) | > 56.2 µg/mL
CC(=O)NC1(NC(C)=O)CCN(C)CC1 | > 32 µg/mL
O=C(NCCS(=O)(=O)N1CCCCCC1)c1ccccc1 | > 46.6 µg/mL
O=C(C1COc2ccccc2O1)N1CCN(c2ccc(C(F)(F)F)cn2)CC1 (stereo not drawn) | 16.3 µg/mL (≈ 41.4 µM)

SMILES | solubility kinetic
Cc1cccc(NCc2ccc(O)c3ncccc23)c1C | > 41.8 µg/mL
COC(=O)c1cccc(NC(=O)c2cc3ccccc3o2)c1 | 13.5 µg/mL (≈ 45.7 µM)
O=C(COc1nncc2ccccc12)NCC(F)(F)F | > 42.8 µg/mL
Cc1ccc(C(=O)Nc2ccc(N3CCN(C)CC3)cc2)cc1 | > 46.4 µg/mL
Clc1ccc(CN2CCCCCC2)cc1Cl | 9 µg/mL (≈ 34.9 µM)
CCc1ccc(NC(=O)NCc2ccc3c(c2)OCO3)cc1 | 0.6 µg/mL (≈ 2.01 µM)
O=C(CN1CCN(c2ccccc2)CC1)Nc1ccncc1 | 38.6 µg/mL (≈ 130 µM)
Cl.Cn1sccc1=O | 18.4 µg/mL
CCOC(=O)N1CCC(N2CCN(c3ccccc3)CC2)CC1.Cl | 51.1 µg/mL
Cc1nnc(NN2CCOCC2)[nH]c1=O | > 31.7 µg/mL
O=c1[nH]c2ccccc2n1C1=CCNCC1 | > 32.3 µg/mL
O=C(CCC(=O)N1CCN(c2ccccc2F)CC1)c1ccc(Cl)s1 | 19.5 µg/mL (≈ 51.2 µM)
COc1ccc(CCNC(=O)c2ccc(OC)c(OC)c2)cc1OC | 39.6 µg/mL (≈ 115 µM)
CCn1cc(S(=O)(=O)Nc2ccc(Cl)cc2F)cn1 | > 45.6 µg/mL
Cc1cc(Cl)ccc1C(=O)C1CCCN(C(=O)c2ccoc2)C1 (stereo not drawn) | 35.7 µg/mL (≈ 108 µM)
CN(C)c1cc2c(cc1NS(=O)(=O)c1ccccc1)n(C)c(=O)n2C | 48 µg/mL (≈ 133 µM)
CC(=O)c1ccc(Oc2nc3c(c(=O)n(C)c(=O)n3C)n2C)cc1 | 9.1 µg/mL (≈ 27.7 µM)
COCCCNC1=C(Cl)C(=O)c2ccccc2C1=O | 35.5 µg/mL (≈ 127 µM)
CC1CC(=O)Nc2ccccc2N1S(=O)(=O)c1ccc(F)cc1F (stereo not drawn) | 15.6 µg/mL (≈ 44.3 µM)
COc1ccc(C(=O)CCC(C)(C)[N+](=O)[O-])cc1OC | > 42.2 µg/mL
O=C(Nc1ccccc1C(F)(F)F)c1ccsc1 | > 40.7 µg/mL
O=c1[nH]cccc1-c1nc2ccccc2n1Cc1ccc(F)cc1 | 47.7 µg/mL (≈ 149 µM)
COC(=O)c1sccc1-n1cccc1C(=O)C(=O)N1CCOCC1 | 46.3 µg/mL (≈ 133 µM)

From PubChem BioAssay AID1996
